Assay results as given in paper PMC8229181, “Chemical Characterization and Anti-Inflammatory Activity of Phytoconstituents from Swertia alata” (Plants, 2021).

Legend:
[1] = tested on: carrageenan induced rat paw edema; assay: Carrageenan-induced rat paw edema method; format: in vivo, Wistar albino rat; conditions: for Increase in Paw Edema (Mean ± SEM): 3 h after inducing edema, rat
Source text: Carageenan was used to induced paw Edema in Wistar albino rat. Carrageenan induced paw edema is a standard assay for acute inflammation that is effectively employed to evaluate the phytoisolate against anti-inflammatory activity. Edema is produced by a sequential release of inflammatory mediators such as histamine, serotonin, kinnins, prostaglandins and bradykinins, which leads to fluid accumulation. Edema is characteristic of an acute inflammatory response. The release of histamine or serotonin occurs in the first phase (up to 1 h) and the second phase (over 1 h) is associated with the production of bradykinins. It is well known that the third phase of the edema induced by carrageenan, in which the edema reaches its highest volume, is characterized by the presence of prostaglandins and other compounds of slow reaction. Previous studies have shown that phytocompounds of S. alata play an important pharmacological role in inflammation. […] Moreover, several studies support that S. alata species have shown antioxidative effects. Inhibition of COX by S. alata leads to a decrease in all prostaglandin and thromboxane synthesis, which accounts for the beneficial anti-inflammatory and prevents ulcerogenic effects. […] Based on the antioxidant effect, SA4 may involve the inhibition of cyclooxygenase/prostaglandin-endoperoxide synthase (PGHS-1 and PGHS-2), and regulatory enzymes, involved in the biosynthesis of prostaglandin (PG) which is strongly implicated in inflammation.
The anti-inflammatory activity of isolated compound was evaluated on Wistar albino rat using carrageenan induced rat paw edema method as per the procedure described in earlier research. The animals were divided into groups, consisting of five rats in each group. The prepared compounds were administered orally at doses of 2, 4, 8 mg/kg body weight (oral gavage) and the volume of paw was determined plethysmographically (Ugo-Basile, Gemonio (VA), Italy). […] Carrageenan (0.1 mL, 1.0% w/v in 0.9% of normal saline) was injected after half an hour into the sub-plantar tissue of the rat’s hind paw. The paw volume was measured at hourly intervals for 3 h (0, 1, 2, and 3 h) and the percent inhibition of edema was calculated using the following formula:% inhibition = (1 − Vs/Vc × 100),(1) where, Vs = paw volume in sample treated group, Vc = paw volume in control group.

[2] = molecular target: human recombinant COX-2 (Homo sapiens, UniProt P35354); assay: In vitro COX-2 inhibitory assay (enzyme immunoassay kit); format: biochemical; conditions: human recombinant COX-2, enzyme immunoassay kit
Method: (§1) The enzymatic assay was performed as per the manufacturer’s assay instructions and standard literature [48]. COX-1 and COX-2 enzymatic activity provides a simple, sensitive, and high-throughput adaptable method to detect the peroxidase activity of COX in biological samples or purified/crude enzyme preparations. The kit includes COX-1 and COX-2 specific inhibitors to differentiate the activity of COX-1 and COX-2 as well as other peroxidases, which may be present in the sample [49].

[3] = molecular target: T1, ovine COX-1 (Ovis aries, UniProt P05979); assay: In vitro COX-1 inhibitory assay (enzyme immunoassay kit); format: biochemical; conditions: ovine COX-1, enzyme immunoassay kit
T1 construct: purchased Cayman Chemicals Inc., Ann Arbor, MI, USA 560131
T1 sequence (P05979 25-600): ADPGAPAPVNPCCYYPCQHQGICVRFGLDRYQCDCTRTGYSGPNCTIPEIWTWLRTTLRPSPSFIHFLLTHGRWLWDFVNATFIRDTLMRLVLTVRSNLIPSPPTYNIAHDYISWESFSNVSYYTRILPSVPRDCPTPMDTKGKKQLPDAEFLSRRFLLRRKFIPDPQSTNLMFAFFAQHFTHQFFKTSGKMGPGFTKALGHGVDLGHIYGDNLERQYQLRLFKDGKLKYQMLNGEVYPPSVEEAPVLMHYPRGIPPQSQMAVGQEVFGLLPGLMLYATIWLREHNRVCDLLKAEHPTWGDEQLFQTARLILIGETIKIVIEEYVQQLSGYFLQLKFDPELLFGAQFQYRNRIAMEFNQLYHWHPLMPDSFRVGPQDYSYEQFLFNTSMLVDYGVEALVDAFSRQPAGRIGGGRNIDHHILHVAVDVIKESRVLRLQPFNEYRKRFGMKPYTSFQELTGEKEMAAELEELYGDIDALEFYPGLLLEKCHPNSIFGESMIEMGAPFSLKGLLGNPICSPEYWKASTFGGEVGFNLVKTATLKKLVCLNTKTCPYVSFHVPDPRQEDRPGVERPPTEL
Method: as §1

Sequence of human recombinant COX-2 (P35354 18-604): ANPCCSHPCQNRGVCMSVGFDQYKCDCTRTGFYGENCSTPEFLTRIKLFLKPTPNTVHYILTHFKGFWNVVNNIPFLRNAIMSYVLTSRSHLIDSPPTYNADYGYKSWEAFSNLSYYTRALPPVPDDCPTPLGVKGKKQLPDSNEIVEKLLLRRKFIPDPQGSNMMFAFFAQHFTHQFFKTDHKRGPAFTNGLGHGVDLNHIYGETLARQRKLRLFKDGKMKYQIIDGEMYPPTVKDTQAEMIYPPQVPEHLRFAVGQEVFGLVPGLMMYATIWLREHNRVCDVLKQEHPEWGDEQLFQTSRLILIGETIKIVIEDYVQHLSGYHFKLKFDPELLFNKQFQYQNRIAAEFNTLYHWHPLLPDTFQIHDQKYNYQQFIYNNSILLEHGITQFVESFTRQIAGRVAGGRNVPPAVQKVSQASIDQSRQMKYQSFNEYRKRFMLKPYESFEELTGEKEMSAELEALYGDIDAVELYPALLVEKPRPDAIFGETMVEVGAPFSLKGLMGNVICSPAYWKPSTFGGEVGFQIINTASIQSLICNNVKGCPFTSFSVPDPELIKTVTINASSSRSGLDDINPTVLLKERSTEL

Compound	Increase in Paw Edema (Mean ± SEM) ([1]; reference drug, oral (8 mg/kg; 21 mg/kg elsewhere in the source))	Increase in Paw Edema (Mean ± SEM) ([1]; 2 mg/kg oral)	Increase in Paw Edema (Mean ± SEM) ([1]; 4 mg/kg oral)	Increase in Paw Edema (Mean ± SEM) ([1]; 8 mg/kg oral)	IC50 [2]	development of edema at the third hour after treatment ([1]; 8 mg/kg, third hour, p < 0.05)	IC50 [3]
COc1ccc2c(c1)c(CC(=O)O)c(C)n2C(=O)c1ccc(Cl)cc1 [Indomethacin, reference compound]	0.15 ± 0.02 mL	–	–	–	–	–	–
CC1(C)CC[C@]2(C(=O)O)CC[C@]3(C)C(=CC[C@@H]4[C@@]5(C)CC[C@H](O)C(C)(C)[C@@H]5CC[C@]43C)[C@@H]2C1 [SA-1, oleanolic acid]	–	0.29 ± 0.00 mL	0.27 ± 0.22 mL	0.23 ± 0.01 mL	–	–	–
CC(C)C1CCC2(C(=O)O)CCC3(C)C(=CCC4C5(C)CCC(O)C(C)(C)C5CCC43C)C12 (stereo not shown) [SA-4, 3-hydroxylup-12-(13)-ene-17-carboxylic acid]	–	0.28 ± 0.00 mL	0.26 ± 0.22 mL	0.17 ± 0.01 mL	61.7 µM	significantly inhibited	104 µM
